From the kinase profiling compilation of Christmann-Franck et al. (2016)

Experiments:
[1] = biological target: DYRK2 (human) (UniProt Q92630)
[2] = biological target: HIPK2 (human) (UniProt Q9H2X6)
[3] = biological target: FGFR1 (human) (UniProt P11362)
[4] = biological target: PIM3 (human) (UniProt Q86V86)
[5] = biological target: MAPK14 (human) (UniProt Q16539)
[6] = biological target: CDK2 CCNA2 (human) (UniProt P20248+P24941)
[7] = biological target: EEF2K (human) (UniProt O00418)
[8] = biological target: MAPK15 (human) (UniProt Q8TD08)
Sequence of MAPK15 (human) (Q8TD08 whole entry, looked up): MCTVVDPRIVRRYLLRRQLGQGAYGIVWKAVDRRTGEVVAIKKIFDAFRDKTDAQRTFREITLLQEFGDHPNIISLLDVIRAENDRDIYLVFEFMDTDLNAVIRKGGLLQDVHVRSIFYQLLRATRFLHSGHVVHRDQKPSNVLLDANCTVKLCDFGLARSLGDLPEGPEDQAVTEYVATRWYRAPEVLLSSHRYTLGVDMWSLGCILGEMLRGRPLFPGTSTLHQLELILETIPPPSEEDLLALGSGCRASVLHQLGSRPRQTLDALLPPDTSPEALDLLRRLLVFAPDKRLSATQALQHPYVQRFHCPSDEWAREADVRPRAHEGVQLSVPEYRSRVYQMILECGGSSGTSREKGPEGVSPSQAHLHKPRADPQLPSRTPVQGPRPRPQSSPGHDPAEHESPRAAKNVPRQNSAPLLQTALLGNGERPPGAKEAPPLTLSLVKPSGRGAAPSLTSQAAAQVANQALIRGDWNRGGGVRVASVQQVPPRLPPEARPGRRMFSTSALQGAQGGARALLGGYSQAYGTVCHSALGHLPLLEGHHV

[9] = biological target: INSRR (human) (UniProt P14616)
[10] = biological target: CSNK1D (human) (UniProt P48730)
[11] = biological target: IKBKB (human) (UniProt O14920)
[12] = biological target: MKNK1 (human) (UniProt Q9BUB5)
[13] = biological target: PAK7 (human) (UniProt Q9P286)
[14] = biological target: PHKG1 (human) (UniProt Q16816)
[15] = biological target: YES1 (human) (UniProt P07947)
[16] = biological target: CHEK2 (human) (UniProt O96017)
Sequence of CHEK2 (human) (O96017 whole entry, looked up): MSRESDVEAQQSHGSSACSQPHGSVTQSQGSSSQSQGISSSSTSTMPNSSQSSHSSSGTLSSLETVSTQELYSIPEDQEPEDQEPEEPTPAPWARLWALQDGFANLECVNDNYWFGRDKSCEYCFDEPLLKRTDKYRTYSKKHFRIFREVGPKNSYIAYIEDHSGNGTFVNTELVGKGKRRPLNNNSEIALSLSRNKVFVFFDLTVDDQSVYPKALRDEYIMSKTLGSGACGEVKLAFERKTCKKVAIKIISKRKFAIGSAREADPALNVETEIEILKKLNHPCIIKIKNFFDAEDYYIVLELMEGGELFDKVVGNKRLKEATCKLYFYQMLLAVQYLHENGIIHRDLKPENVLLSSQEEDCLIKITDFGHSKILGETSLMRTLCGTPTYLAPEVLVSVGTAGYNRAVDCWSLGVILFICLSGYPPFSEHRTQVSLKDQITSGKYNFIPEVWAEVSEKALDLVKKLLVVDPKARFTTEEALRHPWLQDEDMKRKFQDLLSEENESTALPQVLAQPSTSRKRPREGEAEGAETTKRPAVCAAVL

[17] = biological target: FLT1 (human) (UniProt P17948)
[18] = biological target: RPS6KA3 KD1 KD2 (human) (UniProt P51812)
Sequence of RPS6KA3 KD1 KD2 (human) (P51812 whole entry, looked up): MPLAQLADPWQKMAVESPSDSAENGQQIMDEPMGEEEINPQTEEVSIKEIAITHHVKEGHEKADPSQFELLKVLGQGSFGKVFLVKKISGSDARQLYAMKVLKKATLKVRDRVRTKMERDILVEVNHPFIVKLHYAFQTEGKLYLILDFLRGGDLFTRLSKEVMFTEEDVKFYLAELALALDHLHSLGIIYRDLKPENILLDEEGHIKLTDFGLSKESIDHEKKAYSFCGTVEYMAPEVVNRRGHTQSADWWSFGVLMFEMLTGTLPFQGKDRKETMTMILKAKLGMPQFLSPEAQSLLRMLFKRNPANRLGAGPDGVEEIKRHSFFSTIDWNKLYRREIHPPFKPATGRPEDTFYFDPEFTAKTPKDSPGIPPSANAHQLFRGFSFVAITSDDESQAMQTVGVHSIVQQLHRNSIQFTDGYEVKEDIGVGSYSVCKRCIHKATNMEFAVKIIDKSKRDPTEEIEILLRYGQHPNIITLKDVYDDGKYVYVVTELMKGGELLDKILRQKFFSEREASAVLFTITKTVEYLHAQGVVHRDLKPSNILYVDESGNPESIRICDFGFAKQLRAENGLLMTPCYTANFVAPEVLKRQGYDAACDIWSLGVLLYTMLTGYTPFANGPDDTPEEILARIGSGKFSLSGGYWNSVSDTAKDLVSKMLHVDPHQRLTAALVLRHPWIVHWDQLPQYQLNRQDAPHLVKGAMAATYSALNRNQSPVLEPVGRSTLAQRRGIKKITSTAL

[19] = biological target: DYRK3 (human) (UniProt O43781)
[20] = system: LCK (mouse); details: accession and sequence are those of the human protein
[21] = biological target: MAPK11 (human) (UniProt Q15759)
Sequence of MAPK11 (human) (Q15759 whole entry, looked up): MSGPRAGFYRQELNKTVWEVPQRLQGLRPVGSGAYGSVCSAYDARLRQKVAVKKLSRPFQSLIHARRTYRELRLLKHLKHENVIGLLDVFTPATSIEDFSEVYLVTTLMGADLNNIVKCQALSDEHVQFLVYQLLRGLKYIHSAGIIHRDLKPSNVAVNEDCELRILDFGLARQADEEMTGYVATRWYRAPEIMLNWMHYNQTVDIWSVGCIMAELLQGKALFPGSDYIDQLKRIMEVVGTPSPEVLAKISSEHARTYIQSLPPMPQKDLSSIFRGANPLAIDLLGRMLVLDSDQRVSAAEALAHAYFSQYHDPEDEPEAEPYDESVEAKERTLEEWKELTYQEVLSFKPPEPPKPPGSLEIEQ

[22] = biological target: BRSK2 (human) (UniProt Q8IWQ3)
[23] = biological target: MELK (human) (UniProt Q14680)
Sequence of MELK (human) (Q14680 whole entry, looked up): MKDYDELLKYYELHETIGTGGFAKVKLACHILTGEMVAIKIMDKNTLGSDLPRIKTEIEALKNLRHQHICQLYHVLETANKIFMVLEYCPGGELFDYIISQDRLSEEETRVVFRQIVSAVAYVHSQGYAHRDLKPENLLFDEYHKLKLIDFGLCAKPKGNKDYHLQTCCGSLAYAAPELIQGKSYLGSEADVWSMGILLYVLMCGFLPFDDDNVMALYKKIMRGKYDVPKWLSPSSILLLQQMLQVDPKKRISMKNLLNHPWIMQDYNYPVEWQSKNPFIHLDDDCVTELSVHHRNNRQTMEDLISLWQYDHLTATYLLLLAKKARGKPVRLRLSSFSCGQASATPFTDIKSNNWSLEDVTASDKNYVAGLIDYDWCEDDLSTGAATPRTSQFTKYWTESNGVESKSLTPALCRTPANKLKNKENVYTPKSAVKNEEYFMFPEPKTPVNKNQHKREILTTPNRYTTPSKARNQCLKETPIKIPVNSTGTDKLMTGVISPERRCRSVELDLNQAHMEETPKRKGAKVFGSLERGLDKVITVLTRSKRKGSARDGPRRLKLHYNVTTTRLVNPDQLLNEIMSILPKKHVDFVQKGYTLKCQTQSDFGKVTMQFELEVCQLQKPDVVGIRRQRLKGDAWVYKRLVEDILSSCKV

[24] = biological target: SRPK1 (human) (UniProt Q96SB4)
[25] = biological target: MAPK1 (human) (UniProt P28482)
[26] = biological target: IKBKE (human) (UniProt Q14164)
[27] = biological target: PAK4 (human) (UniProt O96013)
[28] = biological target: RPS6KA1 KD1 KD2 (human) (UniProt Q15418)
[29] = biological target: PAK6 (human) (UniProt Q9NQU5)
Sequence of PAK6 (human) (Q9NQU5 whole entry, looked up): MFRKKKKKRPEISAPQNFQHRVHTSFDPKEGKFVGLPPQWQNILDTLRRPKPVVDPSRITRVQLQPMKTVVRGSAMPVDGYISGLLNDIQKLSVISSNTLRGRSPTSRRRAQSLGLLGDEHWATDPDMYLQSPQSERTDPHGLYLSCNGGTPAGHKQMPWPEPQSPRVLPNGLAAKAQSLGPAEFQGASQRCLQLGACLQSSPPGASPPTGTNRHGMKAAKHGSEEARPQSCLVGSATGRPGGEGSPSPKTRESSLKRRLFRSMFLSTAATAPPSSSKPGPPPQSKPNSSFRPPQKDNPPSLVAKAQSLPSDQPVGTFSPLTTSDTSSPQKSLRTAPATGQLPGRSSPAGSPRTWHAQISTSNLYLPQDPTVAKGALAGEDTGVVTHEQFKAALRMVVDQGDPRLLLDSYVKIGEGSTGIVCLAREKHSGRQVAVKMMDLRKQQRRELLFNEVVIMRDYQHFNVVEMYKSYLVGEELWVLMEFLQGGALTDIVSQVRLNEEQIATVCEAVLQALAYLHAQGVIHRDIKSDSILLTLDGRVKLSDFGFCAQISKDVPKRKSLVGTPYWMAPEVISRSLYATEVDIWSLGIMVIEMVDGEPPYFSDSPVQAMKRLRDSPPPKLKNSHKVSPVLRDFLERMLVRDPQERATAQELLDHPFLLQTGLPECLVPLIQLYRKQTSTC

[30] = system: RPS6KB1 (human), P23443 [T412E]
[31] = biological target: PIM2 (human) (UniProt Q9P1W9)
Sequence of PIM2 (human) (Q9P1W9 whole entry, looked up): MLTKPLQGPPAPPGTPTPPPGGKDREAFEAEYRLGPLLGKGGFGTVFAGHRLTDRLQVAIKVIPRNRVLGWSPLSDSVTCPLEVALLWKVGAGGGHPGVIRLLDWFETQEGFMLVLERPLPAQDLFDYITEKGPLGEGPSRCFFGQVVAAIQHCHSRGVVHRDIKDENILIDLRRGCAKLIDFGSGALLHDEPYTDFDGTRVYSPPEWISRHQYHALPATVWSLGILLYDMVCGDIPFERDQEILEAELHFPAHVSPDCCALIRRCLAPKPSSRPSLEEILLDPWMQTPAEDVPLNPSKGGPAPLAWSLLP

[32] = biological target: CaMK1 (human) (UniProt Q14012)
[33] = biological target: MAPK3 (human) (UniProt P27361)

Sequence of FGFR1 (human) (P11362 whole entry, looked up): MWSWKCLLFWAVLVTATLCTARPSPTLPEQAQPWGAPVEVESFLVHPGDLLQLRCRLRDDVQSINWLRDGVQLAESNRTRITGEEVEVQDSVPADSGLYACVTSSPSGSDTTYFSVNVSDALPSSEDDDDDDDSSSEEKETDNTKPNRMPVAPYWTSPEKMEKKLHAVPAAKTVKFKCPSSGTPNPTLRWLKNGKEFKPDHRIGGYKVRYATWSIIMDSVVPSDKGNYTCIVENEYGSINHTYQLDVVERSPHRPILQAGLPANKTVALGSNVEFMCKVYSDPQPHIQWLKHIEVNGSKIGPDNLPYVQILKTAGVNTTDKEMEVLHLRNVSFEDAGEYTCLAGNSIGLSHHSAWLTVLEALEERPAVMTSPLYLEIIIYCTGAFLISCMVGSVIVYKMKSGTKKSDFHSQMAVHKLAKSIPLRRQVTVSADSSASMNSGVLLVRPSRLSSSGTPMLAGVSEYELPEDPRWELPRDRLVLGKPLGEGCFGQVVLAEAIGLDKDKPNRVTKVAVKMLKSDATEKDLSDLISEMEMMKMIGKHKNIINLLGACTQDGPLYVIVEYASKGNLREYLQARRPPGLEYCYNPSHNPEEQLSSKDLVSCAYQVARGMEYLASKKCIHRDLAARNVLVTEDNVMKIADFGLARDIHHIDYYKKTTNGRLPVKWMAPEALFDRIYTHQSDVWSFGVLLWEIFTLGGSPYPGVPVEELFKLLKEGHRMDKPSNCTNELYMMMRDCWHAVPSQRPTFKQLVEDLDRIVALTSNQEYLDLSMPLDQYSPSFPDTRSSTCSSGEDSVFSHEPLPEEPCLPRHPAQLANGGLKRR

`CC(C)n1nc(-c2cc3cc(O)ccc3[nH]2)c2c(N)ncnc21` gave a per cent of control ([1]; compound 1.0 µM) of 17%, a per cent of control ([1]; compound 10.0 µM) of 7% and a per cent of control ([2]; compound 1.0 µM) of 26%. The per cent of control ([2]; compound 10.0 µM) was 7%, the per cent of control ([3]; compound 1.0 µM) was 14% and the per cent of control ([3]; compound 10.0 µM) was 2%. For the same molecule, the per cent of control ([4]; compound 1.0 µM) was 59%, the per cent of control ([4]; compound 10.0 µM) was 13% and the per cent of control ([5]; compound 1.0 µM) was 95%. The per cent of control ([5]; compound 10.0 µM) was 90%, the per cent of control ([6]; compound 1.0 µM) was 78% and the per cent of control ([6]; compound 10.0 µM) was 40%. The per cent of control ([7]; compound 1.0 µM) was 115%, the per cent of control ([7]; compound 10.0 µM) was 106% and the per cent of control ([8]; compound 1.0 µM) was 50%. For the same molecule, the per cent of control ([8]; compound 10.0 µM) was 6%, the per cent of control ([9]; compound 1.0 µM) was 47% and the per cent of control ([9]; compound 10.0 µM) was 29%. The per cent of control ([10]; compound 1.0 µM) was 50%, the per cent of control ([10]; compound 10.0 µM) was 9% and the per cent of control ([11]; compound 1.0 µM) was 85%. It also gave a per cent of control ([11]; compound 10.0 µM) of 84%, a per cent of control ([12]; compound 1.0 µM) of 51% and a per cent of control ([12]; compound 10.0 µM) of 12%. The per cent of control ([13]; compound 1.0 µM) was 69%, the per cent of control ([13]; compound 10.0 µM) was 34% and the per cent of control ([14]; compound 1.0 µM) was 72%. For the same molecule, the per cent of control ([14]; compound 10.0 µM) was 25%, the per cent of control ([15]; compound 1.0 µM) was -2% and the per cent of control ([15]; compound 10.0 µM) was -8%. It also gave a per cent of control ([16]; compound 1.0 µM) of 31%, a per cent of control ([16]; compound 10.0 µM) of 2% and a per cent of control ([17]; compound 1.0 µM) of 11%. The per cent of control ([17]; compound 10.0 µM) was 2%, the per cent of control ([18]; compound 1.0 µM) was 63% and the per cent of control ([18]; compound 10.0 µM) was 16%. For the same molecule, the per cent of control ([19]; compound 1.0 µM) was 10%, the per cent of control ([19]; compound 10.0 µM) was 2% and the per cent of control ([20]; compound 1.0 µM) was 13%. For the same molecule, the per cent of control ([20]; compound 10.0 µM) was 4%, the per cent of control ([21]; compound 1.0 µM) was 91% and the per cent of control ([21]; compound 10.0 µM) was 77%. It also gave a per cent of control ([22]; compound 1.0 µM) of 26%, a per cent of control ([22]; compound 10.0 µM) of 4% and a per cent of control ([23]; compound 1.0 µM) of 26%. It also gave a per cent of control ([23]; compound 10.0 µM) of 13%, a per cent of control ([24]; compound 1.0 µM) of 86% and a per cent of control ([24]; compound 10.0 µM) of 63%. For the same molecule, the per cent of control ([25]; compound 1.0 µM) was 106%, the per cent of control ([25]; compound 10.0 µM) was 88% and the per cent of control ([26]; compound 1.0 µM) was 86%. The per cent of control ([26]; compound 10.0 µM) was 64%, the per cent of control ([27]; compound 1.0 µM) was 88% and the per cent of control ([27]; compound 10.0 µM) was 28%. For the same molecule, the per cent of control ([28]; compound 1.0 µM) was 53%, the per cent of control ([28]; compound 10.0 µM) was 19% and the per cent of control ([29]; compound 1.0 µM) was 80%. For the same molecule, the per cent of control ([29]; compound 10.0 µM) was 38%, the per cent of control ([30]; compound 1.0 µM) was 80% and the per cent of control ([30]; compound 10.0 µM) was 50%. The per cent of control ([31]; compound 1.0 µM) was 110%, the per cent of control ([31]; compound 10.0 µM) was 36% and the per cent of control ([32]; compound 1.0 µM) was 80%. For the same molecule, the per cent of control ([32]; compound 10.0 µM) was 33%, the per cent of control ([33]; compound 1.0 µM) was 88% and the per cent of control ([33]; compound 10.0 µM) was 81%.
